Source: patent publication US20170021014A1, “VACCINE ADJUVANTS FOR CYTOMEGALOVIRUS PREVENTION AND TREATMENT” (THE JOHNS HOPKINS UNIVERSITY, priority 2015, published 2017)

Key:
[1] = test system: secreted IFN-β; test: IFN-β specific ELISA of supernatants; format: cell-based, Human; details: MDP pretreatment 18 or 72 h, MOI 1, 24 h
Protocol: The effect of MDP pretreatment on levels of secreted IFN-β in supernatants from non-infected or HCMV-infected HFFs was measured by IFN-β specific ELISA kit (PBL Assay Science, Piscataway, N.J.).

[2] = test system: pp28-luciferase Towne strain; test: pp28-luciferase HCMV replication assay (first and second cycle); format: cell-based, human cytomegalovirus; details: for luciferase activity reduction, second cycle: MOI 1, second cycle 72 h
Protocol: (§1) Human Foreskin Fibroblasts (HFFs) passage 12-16 (ATCC, CRL-2088™) were grown in Dulbecco's Modified Eagle Medium (DMEM) containing 10% fetal bovine serum (FBS) (Gibco, Carlsbad, Calif.) in a 5% CO2 incubator at 37° C. The generation of NOD2-KD HFFs (HFF-shNOD2) and control cells (HFF-GIPZ) was reported. One day prior to infection or treatment, 8×10^4 cells were seeded into each well of 12-well tissue culture plates. Multiplicities of infection were specified for each experiment. The Towne HCMV strain was obtained from ATCC (VR-977). The pp28-luciferase Towne strain which expresses luciferase under the control of the pp28 late promoter has been described. Luciferase activity was measured at 72 or 96 hours post infection (hpi) using the Glomax-Multi+ Detection System (Promega, Madison, Wis.). In second cycle replication assays cell free supernatants from HFFs infected with pp28-luciferase Towne were collected 4 days post completion of first replication cycle (5-10% of total volume/well), and used for infection of fresh HFFs seeded into 12-well plates. Cell lysates were collected after 72 h for luciferase activity. Supernatants from the first cycle were also used to measure virus titer in 12-well plates and plaques were counted at day 8 post infection. A purified preparation of the pp28-luciferase Towne strain was prepared by ultracentrifugation using sucrose gradient. The HCMV TB40 strain was obtained from ATCC (VR-1578). Clinical isolates of HCMV were obtained from the microbiology laboratory at Johns Hopkins Hospital with no identifiers that could be linked to a patient. The Johns Hopkins School of Medicine Office of Human Subject Research Institutional Review Board (IRB-X) determined that the research qualified for an exemption.

[3] = test system: IL8 mRNA; test: qRT-PCR of IL8 mRNA in HFFs; format: cell-based, Human
Protocol: Total RNA was isolated from cells using RNAeasy Mini kit (Qiagen, Georgetown, Md.) according to manufacturer's instructions. RevertAid first strand cDNA synthesis kit (Fermentas life sciences, Cromwell Park, Md.) was used to synthesize first strand cDNA from total RNA using oligo-dT primers. Negative reverse-transcriptase (−RT) reactions were included to ensure the specificity of qRT-PCR reactions. Synthesis of first strand cDNA from mRNA template was carried out at 42° C. for 1 h. Quantitative RT-PCR was performed using specific primers and SYBR green (Fermentas life science) with two-step cycling protocol (95° C. for 15 s, 60° C. for 1 min). All reactions were performed in triplicates and GAPDH was used as internal control. The expression level of the tested genes was normalized to the expression of GAPDH.

[4] = test system: HCMV Towne; test: Plaque reduction assay in HFFs, HCMV Towne; format: cell-based, human cytomegalovirus
Protocol: A plaque reduction assay was performed in HFFs to determine the effects of MDP treatment either before or after infection on virus replication. HFFs were seeded into 12-well plates (2×10^5 cells/well) and infected with Towne HCMV at approximately 100 plaques/well. After 90 minutes, media were aspirated, and DMEM containing 0.5% carboxymethyl-cellulose (CMC), 4% fetal bovine serum (FBS), and MDP at final concentration of 10 μg/mL were added into duplicate wells. In pretreatment experiments HFFs were first treated with MDP (10 μg/mL) for 72 h after which infection with the Towne or TB40 strains was carried out at approximately 100 plaques/well. After 90 minute adsorption, media were aspirated, and DMEM containing 0.5% CMC and 4% FBS were added into duplicate wells. After incubation at 37° C. for 8 days (Towne) or 10 days (TB40) the overlay was removed and plaques were counted after crystal violet staining.

[5] = test system: pp28-luciferase Towne strain; test: Virus titration of first cycle supernatants by plaque assay; format: cell-based, human cytomegalovirus; details: MDP-pretreated cells, plaques at 8 days
Protocol: as §1, with “Cell lysates were collected after 72 h for luciferase activity.” left out, “A purified preparation of the pp28-luciferase Towne strain was prepared by ultracentrifugation using sucrose gradient. The HCMV TB40 strain was obtained from ATCC (VR-1578). Clinical isolates of HCMV were obtained from the microbiology laboratory at Johns Hopkins Hospital with no identifiers that could be linked to a patient.” left out

`CC(=O)N[C@H]1C(O)O[C@H](CO)[C@@H](O)[C@@H]1O[C@H](C)C(=O)N[C@@H](C)C(=O)N[C@H](CCC(=O)O)C(N)=O` (mixture of isomers) [MDP, Muramyl dipeptide] was tested, and the “secreted IFN-β” value [1] was “increased with the duration of MDP-pretreatment”, the “pp28 activity reduction, first cycle” value ([2]; MDP pretreatment 10 μg/mL 72 h, MOI 0.1, 96 hpi) was 80% and the “pp28 expression (luciferase activity), first cycle” value ([2]; MDP pretreatment 18 or 72 h, MOI 1, 96 hpi) was “modest reduction”. The “luciferase activity reduction, second cycle” value ([2]; MDP pretreatment 18 h) was “approximately 45%”, the “luciferase activity reduction, second cycle” value ([2]; MDP pretreatment 72 h) was roughly 75% and the “increase in IL8 mRNA” value ([3]; HCMV-infected, MDP treatment, 4 hpi) was 2 fold. The “further increase of IL8 mRNA” value ([3]; MDP after infection compared to MDP or HCMV alone, irrespective of MOI) was 6-7 fold, the IL8 expression induction ([3]; MDP alone, non-infected, 36 h) was 3 fold and the IL8 expression ([3]; MDP pretreatment 72 h, non-infected or HCMV-infected) was “modestly induced”. The plaque number ([4]; MDP 10 μg/mL after infection, 100 PFU/well, counted after 8 days) was “reduced plaque number”, the plaque number reduction ([4]; MDP 10 μg/mL pretreatment 72 h, 100 PFU/well, 8 days) was “approximately 90%” and the number of plaques ([4]; control GIPZ cells, MDP pretreatment 72 h, day 8) was “significantly decreased”. The “virus replication (plaque number)” value ([4]; shIFN-β cells, MDP pretreatment 72 h, day 8) was “failed to restrict virus replication” and the “reduction in virus titer” value [5] was 6 fold.
